From patent US20210139477A1, “ALK5 INHIBITORS, CONJUGATES, AND USES THEREOF” (Silverback Therapeutics, Inc., priority 2019, published 2021) come the findings set out here.

One may read the EC50 as the concentration giving half of the maximal effect. Read a low EC50 as a more potent agent.

This assay concerns TGFb/SMAD Signaling Pathway SBE reporter cell line. Briefly: TGFb reporter assay (TGFb/SMAD Signaling Pathway SBE luciferase reporter cell line). The assay is classed as cell-based. To be noted: 5-6 h preincubation, then TGFb, 18 h, luciferase luminescence. As for the experimental part: TGFβ/SMAD Signaling Pathway SBE reporter cell line was obtained from BPS Bioscience. Cells were passed, expanded, and stored in liquid nitrogen as per the supplier's instructions with the exception that growth media is changed to DMEM-C with Geneticin (DMEM supplemented with 10% fetal bovine serum, 1×NEAA, 1 mM Pyruvate, 2 mM glutamine, 50 μg/mL penicillin, 50 U/mL streptomycin and 400 μg/mL of Geneticin). The assay media was MEM supplemented with 0.5% fetal bovine serum, 1×NEAA, 1 mM Pyruvate, 50 μg/mL penicillin and 50 U/mL streptomycin.
TGFb/SMAD Signaling Pathway SBE reporter cell line was obtained from BPS Bioscience. Cells were passed/expanded/stored in liquid nitrogen per supplier's instruction with the exception that growth media was changed to DMEM-C with Geneticin (DMEM supplemented with 10% fetal bovine serum, IX NEAA, 1 mM Pyruvate, 2 mM glutamine, 50 μg/mL penicillin, 50 U/mL streptomycin and 400 ug/mL of Geneticin). The assay media was MEM supplemented with 0.5% fetal bovine serum, IX NEAA, 1 mM Pyruvate, 50 μg/mL penicillin and 50 U/mL streptomycin.
Reporter cells were harvested from the tissue culture flasks by incubation in small quantity of Versene at room temperature for three to five minutes after the media in the flask was removed and cells rinsed with PBS. Cells were counted and diluted in the assay media at 0.8×10^6 cells/mL then 50 uL/well were added to 96-well assay plate. Test samples (at desired concentrations diluted in assay media) were added to assay plate containing the 50 uL/well of cells (or media only), 50 uL per well, and incubated for 5-6 hours at 37° C. in a 5% CO2 humidified incubator. After that time, 15 uL of TGFb diluted to 12.5 ng/mL in the assay media was added to the plate. Controls included TGFb titration (from 25 to 0 ng/mL) without inhibitors, and media only (without cells, inhibitor or TGFb). Plates were incubated at 37° C. in a […] humidified incubator for 18 h. Luciferase substrate solution was subsequently added at 75 uL per well, incubated in dark with shaking at room temperature for 10 min, and luminescence was measured using a luminometer.
`Cc1cccc(-c2nc(CNCc3ccccc3)[nH]c2-c2ccc3ncnn3c2)n1` [Compound 1, 1-(5-([1,2,4]triazolo[1,5-a]pyridin-6-yl)-4-(6-methylpyridin-2-yl)-1H-imidazol-2-yl)-N-benzylmethanamine]: the EC50 is 0.1 to 10 nM.

The compound `Cc1cccc(-c2nc(CNCc3cccc(Cl)c3)[nH]c2-c2ccc3ncnn3c2)n1` [Compound 2] registered an EC50 of 10 to 100 nM.

`Cc1cccc(-c2nc(CNCc3ccc(Cl)cc3)[nH]c2-c2ccc3ncnn3c2)n1` [Compound 3] showed an EC50 of 10 to 100 nM.

`Cc1cccc(-c2nc(CNCc3ccc(Cl)c(Cl)c3)[nH]c2-c2ccc3ncnn3c2)n1` [Compound 4] returned an EC50 of 100 to 1000 nM.

Compound `Cc1cccc(-c2nc(CNCc3cc(Cl)ccc3Cl)[nH]c2-c2ccc3ncnn3c2)n1` [Compound 5] gave an EC50 of 10 to 100 nM.

`Cc1cccc(-c2nc(CNCc3c(Cl)cccc3Cl)[nH]c2-c2ccc3ncnn3c2)n1` [Compound 6]: the EC50 was 0.1 to 10 nM.

With `COc1cccc(CNCc2nc(-c3cccc(C)n3)c(-c3ccc4ncnn4c3)[nH]2)c1` [Compound 7], the EC50 lay within 0.1 to 10 nM.

`COc1ccc(CNCc2nc(-c3cccc(C)n3)c(-c3ccc4ncnn4c3)[nH]2)cc1` [Compound 8] gave an EC50 of 100 to 1000 nM.

The compound `COc1ccc(OC)c(CNCc2nc(-c3cccc(C)n3)c(-c3ccc4ncnn4c3)[nH]2)c1` [Compound 9] returned an EC50 of 10 to 100 nM.

With `Cc1cccc(-c2nc(CN[C@H](C)c3ccccc3)[nH]c2-c2ccc3ncnn3c2)n1` [Compound 11], the EC50 lay within 10 to 100 nM.

`Cc1cccc(-c2nc(CNC(c3ccccc3)c3ccccc3)[nH]c2-c2ccc3ncnn3c2)n1` [Compound 13] came in with an EC50 of 0.1 to 10 nM.

In turn, `Cc1cccc(-c2nc(CN[C@@H](CO)c3ccccc3)[nH]c2-c2ccc3ncnn3c2)n1` [Compound 14] had an EC50 of 10 to 100 nM.

`COC(=O)[C@H](NCc1nc(-c2cccc(C)n2)c(-c2ccc3ncnn3c2)[nH]1)c1ccccc1` [Compound 15] gave an EC50 of 100 to 1000 nM.

`COc1ccccc1CNCc1nc(-c2cccc(C)n2)c(-c2ccc3ncnn3c2)[nH]1` [Compound 17] gave an EC50 of 10 to 100 nM.

`Cc1cccc(-c2nc(CNCc3ccccc3F)[nH]c2-c2ccc3ncnn3c2)n1` [Compound 18]: the EC50 was in the range of 0.1 to 10 nM.

For the compound `Cc1cccc(-c2nc(CNCc3ccccc3C#N)[nH]c2-c2ccc3ncnn3c2)n1` [Compound 20], the EC50 is 100 to 1000 nM.

`Cc1cccc(-c2nc(CNCc3ccccc3C)[nH]c2-c2ccc3ncnn3c2)n1` [Compound 21] registered an EC50 of 0.1 to 10 nM.

The compound `CCc1ccccc1CNCc1nc(-c2cccc(C)n2)c(-c2ccc3ncnn3c2)[nH]1` [Compound 22] had an EC50 of 0.1 to 10 nM.

In the case of `Cc1cccc(-c2nc(CNCc3ccccc3C(C)C)[nH]c2-c2ccc3ncnn3c2)n1` [Compound 23], the EC50 lay in the range of 0.1 to 10 nM.

Consider `Cc1cccc(-c2nc(CNCc3ccccc3-c3ccccc3)[nH]c2-c2ccc3ncnn3c2)n1` [Compound 24], for which the EC50 is 0.1 to 10 nM.

In turn, `Cc1cccc(-c2nc(CNCc3ccccc3N(C)C)[nH]c2-c2ccc3ncnn3c2)n1` [Compound 25] came in with an EC50 of 0.1 to 10 nM.

Consider `Cc1cccc(-c2nc(CNCc3ccccc3OC(F)(F)F)[nH]c2-c2ccc3ncnn3c2)n1` [Compound 26], for which the EC50 was 0.1 to 10 nM.

For the compound `Cc1cccc(-c2nc(CNCc3ccccc3CC(F)(F)F)[nH]c2-c2ccc3ncnn3c2)n1` [Compound 27], the EC50 was 0.1 to 10 nM.

The compound `Cc1cccc(-c2nc(CNCc3ccccc3C(O)C(F)(F)F)[nH]c2-c2ccc3ncnn3c2)n1` (stereo not shown) [Compound 28] yielded an EC50 of 0.1 to 10 nM.

`Cc1cccc(-c2nc(CNCc3ccccc3-c3ccccc3CNC(=O)OC(C)(C)C)[nH]c2-c2ccc3ncnn3c2)n1` [Compound 29] gave an EC50 of 100 to 1000 nM.

`Cc1cccc(-c2nc(CNCc3ccccc3-c3cccc(CNC(=O)OC(C)(C)C)c3)[nH]c2-c2ccc3ncnn3c2)n1` [Compound 30] had an EC50 of 100 to 1000 nM.

The compound `Cc1cccc(-c2nc(CNCc3ccccc3-c3ccc(CNC(=O)OC(C)(C)C)cc3)[nH]c2-c2ccc3ncnn3c2)n1` [Compound 31] registered an EC50 of 100 to 1000 nM.

For `Cc1cccc(-c2nc(CNCc3ccccc3-c3ccccc3CN)[nH]c2-c2ccc3ncnn3c2)n1` [Compound 32], the EC50 fell in the range of 100 to 1000 nM.

`Cc1cccc(-c2nc(CNCc3ccccc3-c3cccc(CN)c3)[nH]c2-c2ccc3ncnn3c2)n1` [Compound 33] returned an EC50 of 100 to 1000 nM.

`Cc1cccc(-c2nc(CNCc3ccccc3-c3ccc(CN)cc3)[nH]c2-c2ccc3ncnn3c2)n1` [Compound 34] returned an EC50 of 100 to 1000 nM.

`Cc1cccc(-c2nc(CNCc3ccccc3-c3ccc(F)cc3)[nH]c2-c2ccc3ncnn3c2)n1` [Compound 35] displayed an EC50 of 0.1 to 10 nM.

`Cc1cccc(-c2nc(CNCc3ccccc3-c3ccc(F)c(F)c3)[nH]c2-c2ccc3ncnn3c2)n1` [Compound 36]: the EC50 lay in the range of 10 to 100 nM.

`Cc1cccc(-c2nc(CNCc3ccccc3-c3cccc(F)c3)[nH]c2-c2ccc3ncnn3c2)n1` [Compound 37] displayed an EC50 of 10 to 100 nM.

With `Cc1cccc(-c2nc(CNCc3ccccc3-c3ccccc3F)[nH]c2-c2ccc3ncnn3c2)n1` [Compound 38], the EC50 lay within 0.1 to 10 nM.

Take `Cc1cccc(-c2nc(CNCc3ccccc3-c3cc(F)cc(F)c3)[nH]c2-c2ccc3ncnn3c2)n1` [Compound 39]: the EC50 was in the range of 10 to 100 nM.

For `Cc1cccc(-c2nc(CNCc3ccccc3-c3ccccn3)[nH]c2-c2ccc3ncnn3c2)n1` [Compound 40], the EC50 fell in the range of 10 to 100 nM.

`Cc1cccc(-c2nc(CNCc3ccccc3-c3cccnc3)[nH]c2-c2ccc3ncnn3c2)n1` [Compound 41]: the EC50 was in the range of 0.1 to 10 nM.

`Cc1cccc(-c2nc(CNCc3ccccc3-c3ccncc3)[nH]c2-c2ccc3ncnn3c2)n1` [Compound 42] gave an EC50 of 10 to 100 nM.

With `Cc1cccc(-c2nc(CNCc3ccccc3C3CCCCC3)[nH]c2-c2ccc3ncnn3c2)n1` [Compound 43], the EC50 is 100 to 1000 nM.

`Cc1cccc(-c2nc(CNCc3ccccc3C3CCCC3)[nH]c2-c2ccc3ncnn3c2)n1` [Compound 44] gave an EC50 of 10 to 100 nM.

`Cc1cccc(-c2nc(CNCc3cccc(C)c3C)[nH]c2-c2ccc3ncnn3c2)n1` [Compound 45] displayed an EC50 of 0.1 to 10 nM.

Consider `COc1cccc(CNCc2nc(-c3cccc(C)n3)c(-c3ccc4ncnn4c3)[nH]2)c1C` [Compound 46], for which the EC50 is 0.1 to 10 nM.

`Cc1cccc(-c2nc(CNCc3cccc(Cl)c3C)[nH]c2-c2ccc3ncnn3c2)n1` [Compound 47]: the EC50 lay within 0.1 to 10 nM.

`Cc1cccc(-c2nc(CNCc3cccc(C)c3-c3ccccc3)[nH]c2-c2ccc3ncnn3c2)n1` [Compound 48] yielded an EC50 of 10 to 100 nM.

`Cc1cccc(-c2nc(CNCc3cccc(-c4ccccc4)c3C)[nH]c2-c2ccc3ncnn3c2)n1` [Compound 49] came in with an EC50 of 10 to 100 nM.

The compound `Cc1cccc(CNCc2nc(-c3cccc(C)n3)c(-c3ccc4ncnn4c3)[nH]2)c1` [Compound 50] displayed an EC50 of 10 to 100 nM.

For the compound `Cc1cccc(-c2nc(CNCc3cccc(-c4ccccc4)c3)[nH]c2-c2ccc3ncnn3c2)n1` [Compound 51], the EC50 was 100 to 1000 nM.

For `Cc1cccc(-c2nc(CNCCc3ccccc3)[nH]c2-c2ccc3ncnn3c2)n1` [Compound 52], the EC50 was in the range of 0.1 to 10 nM.

In turn, `Cc1cccc(-c2nc(CNCc3ccccc3Oc3ccccc3)[nH]c2-c2ccc3ncnn3c2)n1` [Compound 53] gave an EC50 of 0.1 to 10 nM.
